Data: patent US20130184302A1, “METHODS FOR TREATING IRRITABLE BOWEL SYNDROME (IBS) AND INFECTIONS” (priority 2011, published 2013)

Legend:
Format in all cases: in vivo, human
[1] = test system: patients with non-constipation IBS (non-C IBS); assay: Adverse events and discontinuation, rifaximin 550 mg TID study; settings: 550 mg rifaximin TID
[2] = test system: C. difficile infection (CDI); assay: CDI trial: global cure of diarrhea
Text: Subjects having a global cure of diarrhea are set for the in Table 45. Global cure of diarrhea was defined as subjects who were cured of diarrhea at TOC without recurrence at follow up.

[3] = test system: patients with diarrhea-predominant IBS; assay: IBS-QOL questionnaire, rifaximin 550 mg BID vs placebo in d-IBS
Protocol: Both groups received placebo for an additional 14 days after the initial 2-week treatment. Quality of life was assessed with the 34-item IBS-QOL questionnaire at baseline and 4 weeks after initiating treatment. Each item was scored on a 5-point scale (1=not at all; 2=slightly; 3=moderately; 4=quite a bit; and 5=extremely or a great deal). Results for composite and subscale scores were converted to a scale ranging from 0 to 100, with higher scores indicating better QOL.
Following a 2-week initial treatment period, both groups of patients received placebo for an additional 14 days. Quality of life was assessed via the 34-item IBS-QOL questionnaire at baseline and 4 weeks after initiating treatment. Each item was scored on a 5-point scale (1=not at all; 2=slightly; 3=moderately; 4=quite a bit; 5=extremely or a great deal); results for composite and subscale scores were converted to a scale ranging from 0 to 100, with higher scores indicating better QOL.

[4] = test system: subjects with IBS; assay: Sustained response and recurrence of symptoms after Primary Evaluation Period, rolling 4 weeks
Protocol: An evaluation of the enrolled subjects was carried out after the Primary Evaluation Period in the study described in Examples 5-7. […] Subjects with no recurrence are defined as having a stool consistency score of less than 4, abdominal pain reduced by at least 30 percent or both.

[5] = Rifaximin N = 117, Vancomycin N = 115
[6] = cured of diarrhea at TOC without recurrence at follow up, Rifaximin N = 117, Vancomycin N = 115
[7] = Rolling 2-5 Weeks, First and Second Studies, Rifaximin (N = 624)
[8] = Rolling 3-6 Weeks, First and Second Studies
[9] = Rolling 4-7 Weeks, First and Second Studies
[10] = Rolling 4-7 Weeks, Rifaximin (N = 624)
[11] = Rolling 5-8 Weeks, First and Second Studies
[12] = Rolling 5-8 Weeks, Rifaximin (N = 624)
[13] = Rolling 6-9 Weeks, First and Second Studies
[14] = Rolling 6-9 Weeks, Rifaximin (N = 624)
[15] = Rolling 7-10 Weeks, First and Second Studies
[16] = Rolling 7-10 Weeks, Rifaximin (N = 624)
[17] = Rolling 8-11 Weeks, First and Second Studies
[18] = Rolling 8-11 Weeks, Rifaximin (N = 624)
[19] = Rolling 9-12 Weeks, First and Second Studies
[20] = Rolling 9-12 Weeks, Rifaximin (N = 624)

With `CO[C@H]1/C=C/O[C@@]2(C)Oc3c(C)c(O)c4c(O)c(c5c(nc6cc(C)ccn65)c4c3C2=O)NC(=O)/C(C)=C\C=C\[C@H](C)[C@H](O)[C@@H](C)[C@@H](O)[C@@H](C)[C@H](OC(C)=O)[C@@H]1C` [Rifaximin, (2S,16Z,18E,20S,21S,22R, 23R,24R,25S,26S,27S,28E)-5,6,21,23,25 Pentahydroxy-27-methoxy-2,4,11,16,20,22,24,26-octamethyl-2,7-(epoxypentadeca-(1,11,13)trienimino) benzofuro (4,5-e) pyrido(1,2,-a) benzimidazole-1,15(2H)-dione,25-acetate] the “Subjects with skin or subcutaneous tissue disorders” value [1] was 1.3%, the “Global Cure of Diarrhea: No, number of subjects” value [2, 5] was 34 and the “Global Cure of Diarrhea: No, percent of subjects” value [2, 5] was “(29%)”. The “Global Cure of Diarrhea: Treatment Difference” value ([2]; Rifaximin vs Vancomycin) was −3.0%, the “Global Cure of Diarrhea: Yes, number of subjects” value [2, 6] was 83 and the “Global Cure of Diarrhea: Yes, percent of subjects” value [2, 6] was “(71%)”. The “Mean Change From Baseline in IBS-QOL Scores at Week 4: Body image” value ([3]; Rifaximin 1100 mg/d (n = 191)) was 20.1, the “Mean Change From Baseline in IBS-QOL Scores at Week 4: Dysphoria” value ([3]; Rifaximin 1100 mg/d (n = 191)) was 24.8 and the “Mean Change From Baseline in IBS-QOL Scores at Week 4: Food avoidance” value ([3]; Rifaximin 1100 mg/d (n = 191)) was 25.0. For the same molecule, the “Mean Change From Baseline in IBS-QOL Scores at Week 4: Health worry” value ([3]; Rifaximin 1100 mg/d (n = 191)) was 16.0, the “Mean Change From Baseline in IBS-QOL Scores at Week 4: Interference with activity” value ([3]; Rifaximin 1100 mg/d (n = 191)) was 22.2 and the “Mean Change From Baseline in IBS-QOL Scores at Week 4: Relationship” value ([3]; Rifaximin 1100 mg/d (n = 191)) was 14.9. For the same molecule, the “Mean Change From Baseline in IBS-QOL Scores at Week 4: Sexual” value ([3]; Rifaximin 1100 mg/d (n = 191)) was 13.6, the “Mean Change From Baseline in IBS-QOL Scores at Week 4: Social reaction” value ([3]; Rifaximin 1100 mg/d (n = 191)) was 17.3 and the “Mean Change From Baseline in IBS-QOL Scores at Week 4: Overall score” value ([3]; Rifaximin 1100 mg/d (n = 191), scale 0 to 100) was 20.4. The “Improvement with rifaximin over placebo, IBS-QOL: Body image” value ([3]; Week 4, 1100 mg/d) was 37.4%, the “Improvement with rifaximin over placebo, IBS-QOL: Dysphoria” value ([3]; Week 4, 1100 mg/d) was 25.3% and the “Improvement with rifaximin over placebo, IBS-QOL: Food avoidance” value ([3]; Week 4, 1100 mg/d) was 22.1%. For the same molecule, the “Improvement with rifaximin over placebo, IBS-QOL: Health worry” value ([3]; Week 4, 1100 mg/d) was 30.6%, the “Improvement with rifaximin over placebo, IBS-QOL: Interference with activity” value ([3]; Week 4, 1100 mg/d) was 22.2% and the “Improvement with rifaximin over placebo, IBS-QOL: Overall score” value ([3]; Week 4, 1100 mg/d) was 28.7%. The “Improvement with rifaximin over placebo, IBS-QOL: Relationship” value ([3]; Week 4, 1100 mg/d) was 39.5%, the “Improvement with rifaximin over placebo, IBS-QOL: Sexual” value ([3]; Week 4, 1100 mg/d) was 24.9% and the “Improvement with rifaximin over placebo, IBS-QOL: Social reaction” value ([3]; Week 4, 1100 mg/d) was 31.6%. The “Abdominal Pain or Stool Consistency: Sustained Durable Response” value ([4]; First and Second Studies, Rifaximin (N = 624)) was “(28.8%)”, the “Abdominal Pain & Stool Consistency: Sustained Durable Response” value ([4]; Rifaximin (N = 624)) was “(33.2%)” and the “Abdominal Pain: Sustained Durable Response” value ([4]; Rifaximin (N = 624)) was “(35.7%)”. For the same molecule, the “Stool Consistency: Sustained Durable Response” value ([4]; Rifaximin (N = 624)) was “(68.9%)”, the “Abdominal Pain or Stool Consistency: No Recurrence” value [4, 7] was “(45.8%)” and the “Abdominal Pain or Stool Consistency: Recurrence” value [4, 7] was “(1.9%)”. For the same molecule, the “Abdominal Pain or Stool Consistency: No Recurrence” value [4, 8] was “(43.9%)”, the “Abdominal Pain or Stool Consistency: Recurrence” value [4, 8] was “(3.7%)” and the “Abdominal Pain or Stool Consistency: No Recurrence” value [4, 9] was “(40.2%)”. The “Abdominal Pain or Stool Consistency: Recurrence” value [4, 9] was “(2.7%)”, the “Abdominal Pain & Stool Consistency: No Recurrence” value [4, 10] was “(48.2%)” and the “Abdominal Pain & Stool Consistency: Recurrence” value [4, 10] was “(3.7%)”. For the same molecule, the “Abdominal Pain: No Recurrence” value [4, 10] was “(51.9%)”, the “Abdominal Pain: Recurrence” value [4, 10] was “(3.8%)” and the “Stool Consistency: No Recurrence” value [4, 10] was “(78.8%)”. For the same molecule, the “Stool Consistency: Recurrence” value [4, 10] was “(1.3%)”, the “Abdominal Pain or Stool Consistency: No Recurrence” value [4, 11] was “(37.5%)” and the “Abdominal Pain or Stool Consistency: Recurrence” value [4, 11] was “(2.6%)”. For the same molecule, the “Abdominal Pain & Stool Consistency: No Recurrence” value [4, 12] was “(44.6%)”, the “Abdominal Pain & Stool Consistency: Recurrence” value [4, 12] was “(3.2%)” and the “Abdominal Pain: No Recurrence” value [4, 12] was “(48.1%)”. For the same molecule, the “Abdominal Pain: Recurrence” value [4, 12] was “(3.0%)”, the “Stool Consistency: No Recurrence” value [4, 12] was “(77.6%)” and the “Stool Consistency: Recurrence” value [4, 12] was “(2.1%)”. The “Abdominal Pain or Stool Consistency: No Recurrence” value [4, 13] was “(34.9%)”, the “Abdominal Pain or Stool Consistency: Recurrence” value [4, 13] was “(1.6%)” and the “Abdominal Pain & Stool Consistency: No Recurrence” value [4, 14] was “(41.3%)”. The “Abdominal Pain & Stool Consistency: Recurrence” value [4, 14] was “(2.2%)”, the “Abdominal Pain: No Recurrence” value [4, 14] was “(45.0%)” and the “Abdominal Pain: Recurrence” value [4, 14] was “(2.4%)”. The “Stool Consistency: No Recurrence” value [4, 14] was “(75.5%)”, the “Stool Consistency: Recurrence” value [4, 14] was “(2.6%)” and the “Abdominal Pain or Stool Consistency: No Recurrence” value [4, 15] was “(33.3%)”. For the same molecule, the “Abdominal Pain or Stool Consistency: Recurrence” value [4, 15] was “(1.6%)”, the “Abdominal Pain & Stool Consistency: No Recurrence” value [4, 16] was “(39.1%)” and the “Abdominal Pain & Stool Consistency: Recurrence” value [4, 16] was “(1.8%)”. The “Abdominal Pain: No Recurrence” value [4, 16] was “(42.6%)”, the “Abdominal Pain: Recurrence” value [4, 16] was “(2.4%)” and the “Stool Consistency: No Recurrence” value [4, 16] was “(72.9%)”. The “Stool Consistency: Recurrence” value [4, 16] was “(1.4%)”, the “Abdominal Pain or Stool Consistency: No Recurrence” value [4, 17] was “(31.7%)” and the “Abdominal Pain or Stool Consistency: Recurrence” value [4, 17] was “(1.3%)”. For the same molecule, the “Abdominal Pain & Stool Consistency: No Recurrence” value [4, 18] was “(37.3%)”, the “Abdominal Pain & Stool Consistency: Recurrence” value [4, 18] was “(2.2%)” and the “Abdominal Pain: No Recurrence” value [4, 18] was “(40.2%)”. For the same molecule, the “Abdominal Pain: Recurrence” value [4, 18] was “(2.2%)”, the “Stool Consistency: No Recurrence” value [4, 18] was “(71.5%)” and the “Stool Consistency: Recurrence” value [4, 18] was “(0.5%)”. The “Abdominal Pain or Stool Consistency: No Recurrence” value [4, 19] was “(30.4%)”, the “Abdominal Pain or Stool Consistency: Recurrence” value [4, 19] was “(1.6%)” and the “Abdominal Pain & Stool Consistency: No Recurrence” value [4, 20] was “(35.1%)”. For the same molecule, the “Abdominal Pain & Stool Consistency: Recurrence” value [4, 20] was “(1.9%)”, the “Abdominal Pain: No Recurrence” value [4, 20] was “(38.0%)” and the “Abdominal Pain: Recurrence” value [4, 20] was “(2.2%)”. For the same molecule, the “Stool Consistency: No Recurrence” value [4, 20] was “(71.0%)” and the “Stool Consistency: Recurrence” value [4, 20] was “(2.1%)”.
